Test results published in PubChem BioAssay AID2060886 (Molecular Pharmacology Branch, DTP, NCI, 2025).
pIC50: −log10 of the molar value.

Tested on: 653999-131-R-J2-PDC complex spheroids, growth inhibition
Test: Anticancer human tumor 653999-131-R-J2-PDC patient-derived lung adenocarcinoma cell line growth inhibition [RAS]
Conditions: for pIC50: curve of first compound; for viability, T/C: stronger effect = lower value
Text: RAS pathway inhibitors in Combinations in Complex Spheroids
A high-throughput screen of multi-cell type tumor spheroids was designed to identify active combinations of RAS pathway inhibitors and targeted small molecules. Complex spheroids include a stromal component modeled by human endothelial cells (HUVEC) and fibroblasts modeled by human mesenchymal stem cells (MSCs). The concentration ranges selected for each drug and investigational agent were based upon clinically achievable concentrations if the clinical Cmax of the agent was known.
Compounds. The drugs and investigational agents: abemaciclib (NSC768073), cobimetinib (NSC768068), divarasib (GDC6063, NSC841802), docetaxel (NSC628503), GDC-1971 (RLY-1971, NSC841576), gemcitabine (NSC613327), inavolisib (NSC800729), ipatasertib (NSC767898), KB-0742 (NSC834161), MRTX-1133 (NSC836407), osimertinib (NSC779217), RMC-4630 (NSC839698), RMC-6236 (NSC851965), RMC-6291 (NSC852671), Ro-3306 (NSC812927), sapanisertib (NSC764658), SN-38 (NSC673596), staurosporine (NSC755774), SY5609 (NSC837396), and tovorafenib (DAY101, NSC766906), were obtained from the National Cancer Institute (NCI) Developmental Therapeutics Program Chemical Repository. The FDA-approved anticancer drug set is available from the NCI Developmental Therapeutics Program. […] The stock solutions were prepared in dimethyl sulfoxide (DMSO, Sigma-Aldrich, St. Louis, MO, cat. D2650) at 800-fold the tested concentration and stored at -70 degrees C prior to their use. All drugs and investigational agents were tested over a range starting from a high concentration at or near the clinical Cmax and decreasing in half-log increments. If the clinical Cmax for an agent had not been determined, the highest concentration tested was 10 microM.
Cell Culture. All cells were maintained in an incubator at 37 degrees C and 5% CO2 with 95% humidity. The PDC lines were cultured according to standard operating procedures established by the NCI PDMR. All PDCs were thawed and cultured in Matrigel-coated flasks prepared with a working solution of 1X Ham's F-12 nutrient mix, without supplementation (Invitrogen, Waltham, MA, cat. 11765054), 100 U/mL penicillin-streptomycin (Invitrogen, cat. 15140122), and 2.5% Matrigel (Corning Inc., Corning, NY, cat. 354248) for the first three passages. The 362531-283-R-J2-PDC and 782815-120-R-J1-PDC lines were cultured in 6C/Colon 1B media, which includes advanced DMEM/F-12 (Thermo Fisher Scientific, cat. 12634028), 10 mM HEPES (Thermo Fisher Scientific, cat. 15630080), 1X GlutaMAX supplement (Thermo Fisher Scientific, cat. 35050061), 0.1 mg/mL primocin (InvivoGen, San Diego, CA, cat. ant-pm-2), 10% defined fetal bovine serum, heat inactivated (HyClone Laboratories Inc., Logan, UT, cat. SH30070.03HI), 50% L-WRN conditioned media (ATCC, cat. CRL-3276), 1.25 mM N-Acetyl-L-cysteine (Sigma-Aldrich, cat. A9165), 10 mM nicotinamide (Sigma-Aldrich, cat. N0636), 1X B-27 supplement (Thermo Fisher Scientific, cat. 17504044), 1X N-2 supplement (Thermo Fisher Scientific, cat. 17502048), 50 ng/mL human EGF (Thermo Fisher Scientific, cat. PHG0311), and 10 microM Y-27632 dihydrochloride (Tocris Bioscience, cat. 1254). The K12877-001-R-J1-PDC line was cultured in 6I media, which includes all 6C/Colon 1B media plus 10 ng/mL human FGF-10 (PeproTech, cat. 100-26), 1 ng/mL human FGF-2 (PeproTech, cat. 100-18B), 1 µM prostaglandin E2 (Tocris Bioscience, cat. 2296), […] hydrocortisone (Sigma-Aldrich, cat. H4001), and […] bovine insulin (Sigma-Aldrich, cat. I6634). The K86415-001-R-J1-PDC line was cultured in 6D media, which includes all 6C/Colon 1B media components minus the L-WRN conditioned media. The 485176-168-R4-J1-PDC was cultured in PANC media, which includes all 6C/Colon 1B media plus 100 ng/mL human FGF-10 (PeproTech, cat. 100-26), 500 nM SB-431542 (Selleckchem, cat. S1067), and 10 nM gastrin (Tocris Bioscience, cat. 3006). […]

[1] = second compound 0.00316 µM, first compound 0.0316 µM
[2] = second compound 0.00316 µM, first compound 0.1 µM
[3] = second compound 0.00316 µM, first compound 0.316 µM
[4] = second compound 0.00316 µM, first compound 1 µM
[5] = second compound 0.01 µM, first compound 0.0316 µM
[6] = second compound 0.01 µM, first compound 0.1 µM
[7] = second compound 0.01 µM, first compound 0.316 µM
[8] = second compound 0.01 µM, first compound 1 µM
[9] = second compound 0.0316 µM, first compound 0.0316 µM
[10] = second compound 0.0316 µM, first compound 0.1 µM
[11] = second compound 0.0316 µM, first compound 0.316 µM
[12] = second compound 0.0316 µM, first compound 1 µM
[13] = second compound 0.1 µM, first compound 0.0316 µM
[14] = second compound 0.1 µM, first compound 0.1 µM
[15] = second compound 0.1 µM, first compound 0.316 µM
[16] = second compound 0.1 µM, first compound 1 µM
[17] = second compound 0.316 µM, first compound 0.0316 µM
[18] = second compound 0.316 µM, first compound 0.1 µM
[19] = second compound 0.316 µM, first compound 0.316 µM
[20] = second compound 0.316 µM, first compound 1 µM
[21] = second compound 1 µM, first compound 0.0316 µM
[22] = second compound 1 µM, first compound 0.1 µM
[23] = second compound 1 µM, first compound 0.316 µM
[24] = second compound 1 µM, first compound 1 µM
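Further: spheroids exposed to the agents for seven days before the readout.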

`CCC(CC)c1cc(NC2CCC(N)C2)n2nccc2n1` (centres undefined) + C=CC(=O)N1CCN(c2nc(OCC3CCCN3C)nc3c(F)c(-c4nc(N)cc(C)c4C(F)(F)F)c(Cl)cc23)C(C)C1 gave a pIC50 (second compound 0.00316 µM) of 5.69, a pIC50 (second compound 0.01 µM) of 5.71 and a pIC50 (second compound 0.0316 µM) of 5.69. It also gave a pIC50 (second compound 0.1 µM) of 5.67, a pIC50 (second compound 0.316 µM) of 5.72 and a pIC50 (second compound 1 µM) of 5.68. For the same compound, the viability, T/C [1] was 107%, the viability, T/C [2] was 109% and the viability, T/C [3] was 95.5%. For the same compound, the viability, T/C [4] was 101%, the viability, T/C (second compound 0.00316 µM, first compound 3.16 µM) was 16.5% and the viability, T/C (second compound 0.00316 µM, first compound 10 µM) was 21.7%. The viability, T/C [5] was 91.2%, the viability, T/C [6] was 92.2% and the viability, T/C [7] was 104%. It also gave a viability, T/C [8] of 99%, a viability, T/C (second compound 0.01 µM, first compound 3.16 µM) of 16.9% and a viability, T/C (second compound 0.01 µM, first compound 10 µM) of 18.1%. The viability, T/C [9] was 93.3%, the viability, T/C [10] was 117% and the viability, T/C [11] was 87.4%. It also gave a viability, T/C [12] of 94.3%, a viability, T/C (second compound 0.0316 µM, first compound 3.16 µM) of 18.2% and a viability, T/C (second compound 0.0316 µM, first compound 10 µM) of 26%. For the same compound, the viability, T/C [13] was 99.9%, the viability, T/C [14] was 95.4% and the viability, T/C [15] was 112%. It also gave a viability, T/C [16] of 113%, a viability, T/C (second compound 0.1 µM, first compound 3.16 µM) of 16.1% and a viability, T/C (second compound 0.1 µM, first compound 10 µM) of 25.5%. For the same compound, the viability, T/C [17] was 123%, the viability, T/C [18] was 100% and the viability, T/C [19] was 93.7%. It also gave a viability, T/C [20] of 89.4%, a viability, T/C (second compound 0.316 µM, first compound 3.16 µM) of 14.8% and a viability, T/C (second compound 0.316 µM, first compound 10 µM) of 23.8%. It also gave a viability, T/C [21] of 114%, a viability, T/C [22] of 97.2% and a viability, T/C [23] of 111%. For the same compound, the viability, T/C [24] was 116%, the viability, T/C (second compound 1 µM, first compound 3.16 µM) was 13.8% and the viability, T/C (second compound 1 µM, first compound 10 µM) was 20.9%.
`Nc1ccn(C2OC(CO)C(O)C2(F)F)c(=O)n1` (centres undefined) + C=CC(=O)N1CCN(c2nc(OCC3CCCN3C)nc3c(F)c(-c4nc(N)cc(C)c4C(F)(F)F)c(Cl)cc23)C(C)C1 was tested, and the pIC50 (second compound 0.00316 µM) was 6.90, the pIC50 (second compound 0.01 µM) was 7.21 and the pIC50 (second compound 0.0316 µM) was 7.07. It also gave a pIC50 (second compound 0.1 µM) of 7.33, a pIC50 (second compound 0.316 µM) of 7.03 and a pIC50 (second compound 1 µM) of 7.04. For the same compound, the viability, T/C (second compound 0.00316 µM, first compound 0.00316 µM) was 86.5%, the viability, T/C (second compound 0.00316 µM, first compound 0.01 µM) was 82.4% and the viability, T/C [1] was 61.8%. For the same compound, the viability, T/C [2] was 56%, the viability, T/C [3] was 38.7% and the viability, T/C [4] was 32%. For the same compound, the viability, T/C (second compound 0.01 µM, first compound 0.00316 µM) was 107%, the viability, T/C (second compound 0.01 µM, first compound 0.01 µM) was 78.3% and the viability, T/C [5] was 54%. The viability, T/C [6] was 45.9%, the viability, T/C [7] was 41.2% and the viability, T/C [8] was 29.7%. For the same compound, the viability, T/C (second compound 0.0316 µM, first compound 0.00316 µM) was 80.3%, the viability, T/C (second compound 0.0316 µM, first compound 0.01 µM) was 79.8% and the viability, T/C [9] was 67.8%. The viability, T/C [10] was 46.6%, the viability, T/C [11] was 38.2% and the viability, T/C [12] was 33.8%. It also gave a viability, T/C (second compound 0.1 µM, first compound 0.00316 µM) of 84.3%, a viability, T/C (second compound 0.1 µM, first compound 0.01 µM) of 77.3% and a viability, T/C [13] of 55.7%. It also gave a viability, T/C [14] of 38.2%, a viability, T/C [15] of 40.1% and a viability, T/C [16] of 30.5%. It also gave a viability, T/C (second compound 0.316 µM, first compound 0.00316 µM) of 94.6%, a viability, T/C (second compound 0.316 µM, first compound 0.01 µM) of 80.4% and a viability, T/C [17] of 59.9%. For the same compound, the viability, T/C [18] was 48.2%, the viability, T/C [19] was 42.2% and the viability, T/C [20] was 29.8%. For the same compound, the viability, T/C (second compound 1 µM, first compound 0.00316 µM) was 89.5%, the viability, T/C (second compound 1 µM, first compound 0.01 µM) was 81.4% and the viability, T/C [21] was 60.6%. For the same compound, the viability, T/C [22] was 48.9%, the viability, T/C [23] was 42.2% and the viability, T/C [24] was 33.7%.
